Where two headings read alike, the source gives them in different places.
Experiments:
Human Factor XIa = Human Factor XIa (Homo sapiens (Human), UniProt P03951); assay: Factor XIa enzyme activity (chromogenic substrate S-2366); format: biochemical; conditions: read-out: In vitro FXIa inhibitory activity IC50
Experimental: Inhibitory activities of compounds of the present invention against factor XIa, Xa, XIIa, IXa, VIIa, plasma kallikrein or thrombin were evaluated using appropriate purified proteases and synthetic substrates. The rate of hydrolysis of the chromogenic substrate by the relevant protease was continuously measured at 405 nm.
Inhibitory activity against each enzyme was calculated as % inhibition using the equation described below. % Inhibition=[[(rate without compound)−(rate with compound)](rate without compound)]×100%. Each half maximal inhibitory concentration (IC50) value was determined by plotting the concentration of compound of the invention against the % inhibition. (1-1) Factor XIa Enzyme Activity
Human Factor XIa (Haematologic Technologies Inc.) activity was measured at an enzyme concentration of 0.1 U/mL in 150 mM NaCl, 5 mM KCl, 1 mg/mL PEG6000, 50 mM HEPES-NaOH (pH7.4) with 300 μM S-2366 (pyroGlu-Pro-Arg-pNA, Chromogenix).

[1] = Rat oral administration test (plasma concentration via FXIa inhibitory activity); format: in vivo; conditions: fasted male Crj:CD(SD)IGS rats, single 3 mg/kg p.o., 20% wellsolve, read-out: rat plasma concentration after po administration Cmax at 3 mpk
Experimental: Each compound of the present invention in a solution of 20% wellsolve (celeste) was given to fasted male Crj:CD(SD)IGS rats as a single 3 mg/kg, p.o. dose by gavage. Blood samples were drawn from jugular vein into syringes containing 3.2% sodium citrate (the volume ratio of blood to anticoagulant=9:1) after oral administration at 0.5, 1, 2, 4 and 6 hours. Plasma was harvested by centrifugation and stored at −20° C. until measurement of plasma concentration.
To measure plasma concentrations of the compounds of the present invention, plasma samples were deproteinized with acetonitrile, followed by evaporation of the acetonitrile to dryness. The residual was then re-dissolved with DMSO and its FXIa inhibitory activity was measured by enzyme assay described above. Plasma concentrations of each compound of the present invention were quantitated by generating a standard curve of known compound concentration in rat plasma.

[2] = Pharmacokinetic (PK) study of the compound which has an ester group(s) in rat; format: in vivo; conditions: plasma, po, fasted male Crj:CD(SD) rats, single 3 mg/kg p.o., analyte: administered ester compound, read-out: rat plasma concentration of ester compound after po administration Cmax at 3mpk
Experimental: Each compound of the present invention in a solution of 20% wellsolve (celeste) was given to fasted male Crj:CD(SD) rats as a single 3 mg/kg, p.o. dose by gavage. Blood samples were drawn from jugular vein into syringes treated with heparin-diisopropyl fluorophosphate mixture (500:1) at 0.5, 1, 3, 7 hours after oral administration. Plasma was obtained by centrifugation and stored at −20° C. until measurement of plasma concentration.
To measure plasma concentrations of the compounds of the present invention, plasma samples were deproteinized with acetonitrile, followed by evaporation of the acetonitrile to dryness. Then the sample was reconstituted in the mobile phase and analyzed by LC/MS/MS. An analytical column (Shim-pack XR-ODS II, 2.0 mm×75 mm, 2.2 μm) and mobile phase (0.1% formic acid in water and 0.1% formic acid in acetonitrile, flow rate of 0.5 mL/min) were used. The system was used in multiple reaction monitoring (MRM) mode with positive ion detection.

[3] = Table 2, comparison with comparative compounds
[4] = human Factor XIa 0.1 U/mL, 300 μM S-2366, pH7.4

Chain of Human Factor XIa (P03951 388-625): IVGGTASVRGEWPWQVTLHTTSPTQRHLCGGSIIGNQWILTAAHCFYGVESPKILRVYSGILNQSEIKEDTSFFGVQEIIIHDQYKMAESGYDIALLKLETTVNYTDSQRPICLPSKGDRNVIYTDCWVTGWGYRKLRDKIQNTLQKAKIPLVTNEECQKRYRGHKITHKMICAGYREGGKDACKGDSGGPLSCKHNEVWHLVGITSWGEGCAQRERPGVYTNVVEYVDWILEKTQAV
Chain of Human Factor XIa (P03951 19-387 partner): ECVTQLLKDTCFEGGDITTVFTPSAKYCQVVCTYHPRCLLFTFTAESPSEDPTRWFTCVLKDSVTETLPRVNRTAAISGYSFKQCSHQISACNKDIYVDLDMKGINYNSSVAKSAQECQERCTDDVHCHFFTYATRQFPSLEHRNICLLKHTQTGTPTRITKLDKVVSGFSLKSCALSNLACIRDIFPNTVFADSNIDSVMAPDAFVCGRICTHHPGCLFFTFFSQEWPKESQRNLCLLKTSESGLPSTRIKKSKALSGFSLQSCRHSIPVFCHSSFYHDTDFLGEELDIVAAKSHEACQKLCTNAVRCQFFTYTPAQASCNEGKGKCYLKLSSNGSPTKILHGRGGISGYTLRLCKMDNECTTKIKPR

COC(=O)Nc1ccc(-c2cnc(C3CCc4nc(-c5cc(Cl)ccc5-n5cnnn5)cc(=O)n43)[nH]2)cc1 (centres unmarked) [Example 41, methyl[4-(2-{2-[5-chloro-2-(1H-tetrazol-1-yl)phenyl]-4-oxo-4,6,7,8-tetrahydropyrrolo[1,2-a]pyrimidin-6-yl}-1H-imidazol-5-yl)phenyl]carbamate]
IC50 (Human Factor XIa; [3]): 6.5 nM
IC50 (Human Factor XIa; [4]): 6.5 nM
Cmax [1]: 2280 nM

CCOC(=O)c1ccc(-c2cnc([C@@H]3CCc4cc(-c5cc(Cl)ccc5-n5cnnn5)cc(=O)n43)[nH]2)s1 [Example 401, ethyl 5-(2-{(3S)-7-[5-chloro-2-(1H-tetrazol-1-yl)phenyl]-5-oxo-1,2,3,5-tetrahydro-3-indolizinyl}-1H-imidazol-5-yl)-2-thiophenecarboxylate]
Cmax [2]: 960 nM

COC(=O)Nc1ccc(-c2[nH]c([C@H](Cc3ccccc3)NC(=O)CCc3cc(Cl)ccc3-n3cnnn3)nc2Cl)cc1 [Comp Ex 1, reference compound]
IC50 (Human Factor XIa; [3]): 3.6 nM
Cmax [1]: 15 nM

COC(=O)Nc1ccc(-c2[nH]c(Cn3ccc(-c4cc(Cl)ccc4-n4cnnn4)cc3=O)nc2Cl)cc1 [Example 57, methyl{4-[5-chloro-2-({4-[5-chloro-2-(1H-tetrazol-1-yl)phenyl]-2-oxo-1(2H)-pyridinyl}methyl)-1H-imidazol-4-yl]phenyl}carbamate]
IC50 (Human Factor XIa; [3]): 2.4 nM
IC50 (Human Factor XIa; [4]): 2.4 nM
Cmax [1]: 510 nM

COC(=O)Nc1ccc(-c2[nH]c(C3CCc4cc(-c5cc(Cl)ccc5-n5cnnn5)cc(=O)n43)nc2Cl)cc1 (centres unmarked) [Example 45, methyl[4-(4-chloro-2-{7-[5-chloro-2-(1H-tetrazol-1-yl)phenyl]-5-oxo-1,2,3,5-tetrahydro-3-indolizinyl}-1H-imidazol-5-yl)phenyl]carbamate]
IC50 (Human Factor XIa; [3]): 15 nM
IC50 (Human Factor XIa; [4]): 15 nM
Cmax [1]: 1250 nM

COC(=O)Nc1ccc(-c2[nH]c([C@H](C)NC(=O)/C=C/c3cc(Cl)ccc3-n3cnnn3)nc2Cl)cc1 [Comp Ex 2, reference compound]
Cmax [1]: 25 nM

COC(=O)Nc1ccc(-c2[nH]c(CNC(=O)/C=C/c3cc(Cl)ccc3-n3cnnn3)nc2Cl)cc1 [Comp Ex 3, reference compound]
Cmax [1]: 88 nM

— patent publication US9732085B2, “Pyridinone and pyrimidinone derivatives as factor Xia” (ONO PHARMACEUTICAL CO., LTD., priority 2011, dated 2017)
